Data from patent US5583138A, “17β-substituted 4-azaandrostane derivatives, pharmaceutical compositions containing them and process for preparing same” (Richter Gedeon Vegyeszeti Gyar Rt., priority 1992, dated 1996).

Target: T1, steroid 5α-reductase enzyme (Homo sapiens, UniProt P31213)
T1 construct: Frozen human hyperplastic prostate was used for preparation of the enzyme; from tissue; host or cells: human hyperplastic prostate (frozen), sediment of 100000×g ultracentrifugation
T1 sequence (P31213 1-254): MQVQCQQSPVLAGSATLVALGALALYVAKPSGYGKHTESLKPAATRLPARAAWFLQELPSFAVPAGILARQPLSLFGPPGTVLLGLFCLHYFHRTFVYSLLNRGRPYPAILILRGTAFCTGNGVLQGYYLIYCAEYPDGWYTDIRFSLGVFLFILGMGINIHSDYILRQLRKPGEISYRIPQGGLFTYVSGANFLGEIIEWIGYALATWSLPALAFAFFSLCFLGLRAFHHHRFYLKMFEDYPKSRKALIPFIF
Test: 5α-reductase inhibition: conversion of [3H]-testosterone to DHT and androstanediol by enzyme from human hyperplastic prostate
Format: biochemical
Details: 0.5 μM [3H]-testosterone, 500 μM NADPH, pH=5.1, 37° C., 10 minutes, read-out: IC50 (concentration decreasing the percentage conversion of testosterone by 50% in comparison to the control value)

IC50 [nM]	Compound
8.59	CC1CCCC(C)N1C(=O)[C@H]1CC[C@H]2[C@@H]3CC[C@H]4NC(=O)C=C[C@]4(C)[C@H]3CC[C@]12C (stereo partly drawn) [17β-(2,6-dimethylpiperidinocarbonyl)-3-oxo-4-aza-5α-androst-1-ene]
8.64	C[C@]12C=CC(=O)N[C@@H]1CC[C@@H]1[C@@H]2CC[C@]2(C)[C@@H](C(=O)N3CCCCCCC3)CC[C@@H]12 [17β-(heptamethyleneiminocarbonyl)-3-oxo-4-aza-5α-androst-1-ene]
13.1	C[C@]12C=CC(=O)N[C@@H]1CC[C@@H]1[C@@H]2CC[C@]2(C)[C@@H](C(=O)N3CCCCCC3)CC[C@@H]12 [17β-(hexamethyleneiminocarbonyl)-3-oxo-4-aza-5α-androst-1-ene]
18.4	CC(C)(C)NC(=O)[C@H]1CC[C@H]2[C@@H]3CC[C@H]4NC(=O)C=C[C@]4(C)[C@H]3CC[C@]12C [MK-906, 17β-[N-(1,1-Dimethylethyl)carbamoyl]-3-oxo-4-aza-5α-androst-1-ene, reference compound]
